Laboratory results from patent US20190262330A1, “Method of Treating Hepatocellular Carcinoma Using N-(4-(6,7-dimethoxyquinolin-4-yloxy)phenyl)-N′-(4-fluorophenyl)cyclopropane-1,1-dicarboxamide, (2S)-hydroxybutanedioate” (Exelixis, Inc., priority 2017, published 2019).

Legend:
[1] = test system: CYP3A4; experiment: Drug interaction with strong CYP3A4 inducer rifampin; format: in vivo, human; settings: rifampin 600 mg daily for 31 days, healthy subjects
[2] = target: CYP2D6 (Homo sapiens, UniProt P10635); experiment: In vitro metabolic pathways; format: in vitro ADME
CYP2D6, sequence (P10635 whole entry): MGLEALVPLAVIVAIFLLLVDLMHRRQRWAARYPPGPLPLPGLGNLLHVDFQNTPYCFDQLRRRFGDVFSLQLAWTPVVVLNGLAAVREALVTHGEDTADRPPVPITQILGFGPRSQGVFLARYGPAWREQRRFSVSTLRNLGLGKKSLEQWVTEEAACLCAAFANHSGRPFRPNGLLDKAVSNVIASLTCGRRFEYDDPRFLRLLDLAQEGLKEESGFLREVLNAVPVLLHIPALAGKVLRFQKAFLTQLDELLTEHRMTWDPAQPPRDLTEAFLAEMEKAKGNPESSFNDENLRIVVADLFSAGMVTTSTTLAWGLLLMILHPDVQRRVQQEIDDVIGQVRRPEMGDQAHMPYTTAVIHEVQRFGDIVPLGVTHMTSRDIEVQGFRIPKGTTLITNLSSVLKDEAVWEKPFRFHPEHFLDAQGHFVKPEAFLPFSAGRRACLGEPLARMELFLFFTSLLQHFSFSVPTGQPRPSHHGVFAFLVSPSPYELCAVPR

## COc1cc2nccc(Oc3ccc(NC(=O)C4(C(=O)Nc5ccc(F)cc5)CC4)cc3)c2cc1OC [cabozantinib]
[1]
  Decrease of single-dose plasma exposure (AUC0-inf): 77%
[2]
  Effect of inhibition of CYP2D6 on metabolite formation: no effect
